Experimental data: patent US20090062355A1, “Pharmaceutical Product” (Takeda Pharmaceutical Company Limited, priority 2006, published 2009)

How the values were obtained:
[1] = test system: mouse macrophage cell line RAW264.7 cells; test: Inhibitory action on intracellular signal transduction after LPS stimulation (Bioplex phosphorylated protein assay); type: cell-based; details: LPS 10 ng/mL; 1, 3, 10, 20, 30 min; FIG. 1
Excerpt: FIG. 1-1 is a graph showing the effect of test compound 1 on phosphorylated protein (ATF2) after LPS addition in mouse macrophage cells. An average of triplicate measurement values is shown, mean±standard error (Experimental Example 5, n=3).
FIG. 1-2 is a graph showing the effect of test compound 1 on phosphorylated protein (JNK) after LPS addition in mouse macrophage cells. An average of triplicate measurement values is shown, mean±standard error (Experimental Example 5, n=3).
FIG. 1-3 is a graph showing the effect of test compound 1 on phosphorylated protein (p38MAPK) after LPS addition in mouse macrophage cells. An average of triplicate measurement values is shown, mean±standard error (Experimental Example 5, n=3).
FIG. 1-4 is a graph showing the effect of test compound 1 on phosphorylated protein (IκBα) after LPS addition in mouse macrophage cells. An average of triplicate measurement values is shown, mean±standard error (Experimental Example 5, n=3). […]
A suppressive effect of test compound 1 (compound 72 of • Reference Example B66) on the production of various cytokines by lipopolysaccharide (LPS), which is a TLR4 agonist, using mouse macrophage cell line RAW264.7 cells was examined. […] The supernatant was recovered, and phosphorylated protein was quantified using Bioplex phosphorylated protein assay (Bio-Rad). […]

[2] = test system: mouse macrophage cell line RAW264.7 cells; test: Suppressive action on expression caused by gene induction by LPS stimulation (DNA Chip); type: cell-based; details: 100 nM + LPS 10 ng/mL, 6 hr
Method: A suppressive effect of test compound 1 (compound 72 of • Reference Example B66) on the production of various mediators by lipopolysaccharide (LPS), which is a TLR4 agonist, in mouse macrophage cell line RAW264.7 cells was examined. The day before the experiment, the cells were suspended to 5×10^5 cells/mL in RPMI1640 medium supplemented with 10% inactivated fetal bovine serum, plated on a plate and incubated at 37° C., 5% CO2/95% air overnight. The medium was changed to RPMI1640 medium supplemented with 1% inactivated fetal bovine serum, and test compound 1 (final concentration 100 nM) and LPS (final concentration 10 ng/mL) were added. After culture for 6 hr, RNA was prepared by a conventional method and gene was analyzed using DNA Chip (Mu73A, Affimetrix) and Gene Spring ver. 4. The test substance was dissolved in N,N-dimethylformamide to 10 mM and diluted with a medium.

CCOC(=O)C1=CCCC[C@H]1S(=O)(=O)Nc1ccc(F)cc1Cl [test compound 1, ethyl (6R)-6-[(2-chloro-4-fluoroanilino)sulfonyl]-1-cyclohexene-1-carboxylate]
phosphorylated protein after LPS addition (ATF2, JNK, p38MAPK, IκBα, ERK1/2, p90RSK, STAT2, p70 S6 Kinase) [1]: suppressed phosphorylation of all examined proteins involved in LPS signal transduction
gene variation by LPS stimulation ([2]; all genes analyzed that showed variation by LPS): suppressed almost all the gene variation analyzed
expression of mRNA (fluorescence intensity): MMP-9 ([2]; control 0, LPS 3571.5): 352.6
expression of mRNA (fluorescence intensity): bcl-3 ([2]; control 0, LPS 7512.6): 158.7
expression of mRNA (fluorescence intensity): Guanylate binding protein-2 ([2]; control 0, LPS 8931.2): 19.4
expression of mRNA (fluorescence intensity): RANTES ([2]; control 0, LPS 12030.1): 34.8
expression of mRNA (fluorescence intensity): IL-1 beta ([2]; control 0, LPS 18712.2): 424.9
expression of mRNA (fluorescence intensity): Cytokine inducible SH2-containing protein ([2]; control 0, LPS 22669.3): 2092.5
expression of mRNA (fluorescence intensity): MCP-3 ([2]; control 2.4, LPS 3159.0): 46.5
expression of mRNA (fluorescence intensity): Adenosine A2b receptor ([2]; control 2.7, LPS 2092.2): 141.9
expression of mRNA (fluorescence intensity): inducible nitric oxide synthase ([2]; control 9.3, LPS 1251.6): 125.9
expression of mRNA (fluorescence intensity): COX-2 ([2]; control 24.4, LPS 13981.9): 71.9
expression of mRNA (fluorescence intensity): CCR1 ([2]; control 26.5, LPS 1877.4): 137.9
expression of mRNA (fluorescence intensity): IL-6 ([2]; control 26.7, LPS 5345.6): 0
expression of mRNA (fluorescence intensity): IP-10 ([2]; control 40.1, LPS 12954.7): 30.7
expression of mRNA (fluorescence intensity): Histidine decarboxylase ([2]; control 44.3, LPS 4472.2): 21.1
expression of mRNA (fluorescence intensity): IL-4 receptor ([2]; control 84.4, LPS 7015.8): 160.6
expression of mRNA (fluorescence intensity): MCP-1 ([2]; control 115.6, LPS 24184.7): 336.8
expression of mRNA (fluorescence intensity): Fas antigen ([2]; control 132.7, LPS 2507.5): 202.7
expression of mRNA (fluorescence intensity): A20 ([2]; control 143.9, LPS 1044.3): 204.0
expression of mRNA (fluorescence intensity): IL-1 receptor antagonist ([2]; control 156.9, LPS 21942.3): 538.2
expression of mRNA (fluorescence intensity): P2X4 ([2]; control 193.0, LPS 1239.3): 227.0
expression of mRNA (fluorescence intensity): plasminogen activator inhibitor ([2]; control 199.1, LPS 15207.5): 67.5
expression of mRNA (fluorescence intensity): TNF receptor associated factor ([2]; control 213.6, LPS 2457.3): 311.4
expression of mRNA (fluorescence intensity): IL-10 ([2]; control 221.8, LPS 6617.9): 128.1
expression of mRNA (fluorescence intensity): Janus kinase 2 ([2]; control 228.3, LPS 2175.1): 310.9
expression of mRNA (fluorescence intensity): argininosuccinate synthetase ([2]; control 376.7, LPS 8623.2): 478.9
expression of mRNA (fluorescence intensity): Major histocompatibility complex ([2]; control 378.5, LPS 3399.6): 353.0
expression of mRNA (fluorescence intensity): serum amyloid A ([2]; control 393.1, LPS 24253.2): 1041.0
expression of mRNA (fluorescence intensity): Caspase-11 ([2]; control 436.0, LPS 6975.7): 763.5
expression of mRNA (fluorescence intensity): Phosphatase PAC1 ([2]; control 653.7, LPS 12520.7): 765.9
expression of mRNA (fluorescence intensity): G-CSF ([2]; control 698.4, LPS 18440.5): 844.9
expression of mRNA (fluorescence intensity): IL-18 ([2]; control 708.7, LPS 4881.4): 429.4
expression of mRNA (fluorescence intensity): MIP-2 ([2]; control 819.2, LPS 12542.9): 3055.0
expression of mRNA (fluorescence intensity): TNF receptor ([2]; control 906.2, LPS 24864.6): 3467.0
expression of mRNA (fluorescence intensity): Fc receptor ([2]; control 1244.4, LPS 20683.4): 982.5
expression of mRNA (fluorescence intensity): Interferon regulatory factor ([2]; control 1491.7, LPS 7554.9): 1356.3
expression of mRNA (fluorescence intensity): Galectin-9 ([2]; control 1904.3, LPS 19639.3): 3639.2
